{"source": "patent US20170240556A1", "about": "“BIFLUORODIOXALANE-AMINO-BENZIMIDAZOLE KINASE INHIBITORS FOR THE TREATMENT OF CANCER, AUTOIMMUNEINFLAMMATION AND CNS DISORDERS” (4SC DISCOVERY GMBH, priority 2012, published 2017)", "test_in_all_cases": "Proliferation Assay", "assay_type_in_all_cases": "cell-based", "key": {"[1]": {"system": "DU145 (prostate)", "details": "Homo sapiens, DU-145, 72 h, read-out: IC50 inhibition of cell growth", "procedure": "(§1) For the determination of the inhibitory capacity of compounds of the present invention (in the following: “test compound(s)”) on cell growth, cancer cells were seeded into microtitre plates, treated with different concentrations of test compound or left untreated, and after 72 h the protein content was determined as an equivalent for the cell number.\n(§2) Test compounds were dissolved in 100% DMSO and predilutions in cell culture medium were prepared with a final concentration of 0.1% DMSO in medium. The cell culture medium for dilution of the test compounds, consecutive culturing of cell lines and usage during the assay was a cell line specific medium as recommended by the cell line supplier and identical for all three applications mentioned above. After a 24-hour pre-growth period of the seeded cancer cells, the test compound containing media or medium containing 0.1% DMSO as control was added to the cells. The cells were allowed to grow at 37° C. for 72 hours. In addition, all experiments contained a few plates with cells that were processed for measurement immediately after the 24 hours recovery period. These plates contained information about the cell number that existed before treatment, at time zero, and served to calculate the cytotoxicity and/or growth inhibitory effects.\n(§3) After treatment, cells were precipitated by addition of 10% TCA (trichloracetic acid). Prior to fixation, the media was aspirated. After an hour of incubation at 4° C. the plates were washed twice with 400 μl of deionized water. Cells were then stained with 100 μl of a 0.08% wt/v SRB (sulforhodamine). The plates were allowed to sit for at least 30 min and washed six times with 1% acetic acid to remove unbound staining agent. The plates were left to dry at room temperature and bound SRB was solubilized with 100 μl of 10 mM Tris base. Measurement of optical density was performed at 560 nm on a Victor 2 plate reader (Perkin Elmer, Germany).\n(§4) One common way to express the effect of an anticancer agent is to measure cell viability and survival in the presence of the test agent as % Treated/Control×100. The relationship between the viability and dose is called a dose response curve. Those dose response curves were determined by using algorithms developed by Oncolead GmbH & Co. KG, Munich, Germany, that can be compared to commercial applications, e.g. XLfit™ (ID Business Solutions Ltd., Guildford, UK) algorithm “205”."}, "[2]": {"system": "CAKI1 (kidney)", "details": "Homo sapiens, CAKI-1, 72 h, read-out: IC50 inhibition of cell growth", "procedure": "as §1, §2, §3, §4"}, "[3]": {"system": "HS578T (breast)", "details": "Homo sapiens, Hs-578T, 72 h, read-out: IC50 inhibition of cell growth", "procedure": "as §1, §2, §3, §4"}, "[4]": {"system": "PLCPRFS (liver)", "details": "72 h, read-out: IC50 inhibition of cell growth", "procedure": "as §1, §2, §3, §4"}, "[5]": {"system": "RDES (bone)", "details": "RD-ES, 72 h, read-out: IC50 inhibition of cell growth", "procedure": "as §1, §2, §3, §4"}, "[6]": {"system": "EFO21 (ovary)", "details": "Homo sapiens, EFO-21, 72 h, read-out: IC50 inhibition of cell growth", "procedure": "as §1, §2, §3, §4"}, "[7]": {"system": "CLS439 (bladder)", "details": "72 h, read-out: IC50 inhibition of cell growth", "procedure": "as §1, §2, §3, §4"}, "[8]": {"system": "NCIH82 (lung)", "details": "Homo sapiens, NCI-H82, 72 h, read-out: IC50 inhibition of cell growth", "procedure": "as §1, §2, §3, §4"}, "[9]": {"system": "OVCAR3 (ovary)", "details": "Homo sapiens, OVCAR-3, 72 h, read-out: IC50 inhibition of cell growth", "procedure": "as §1, §2, §3, §4"}, "[10]": {"system": "MDAMB436 (breast)", "details": "Homo sapiens, MDA-MB-436, 72 h, read-out: IC50 inhibition of cell growth", "procedure": "as §1, §2, §3, §4"}, "[11]": {"system": "SKMEL5 (skin)", "details": "Homo sapiens, SK-MEL-5, 72 h, read-out: IC50 inhibition of cell growth", "procedure": "as §1, §2, §3, §4"}, "[12]": {"system": "MT3 (breast)", "details": "72 h, read-out: IC50 inhibition of cell growth", "procedure": "as §1, §2, §3, §4"}, "[13]": {"system": "PANC1 (pancreas)", "details": "Homo sapiens, PANC-1, 72 h, read-out: IC50 inhibition of cell growth", "procedure": "as §1, §2, §3, §4"}, "[14]": {"system": "ACHN (kidney)", "details": "Homo sapiens, 72 h, read-out: IC50 inhibition of cell growth", "procedure": "as §1, §2, §3, §4"}, "[15]": {"system": "PANC1005 (pancreas)", "details": "Homo sapiens, 72 h, read-out: IC50 inhibition of cell growth", "procedure": "as §1, §2, §3, §4"}, "[16]": {"system": "SNB75 (brain)", "details": "Homo sapiens, SNB-75, 72 h, read-out: IC50 inhibition of cell growth", "procedure": "as §1, §2, §3, §4"}, "[17]": {"system": "UMUC3 (bladder)", "details": "Homo sapiens, 72 h, read-out: IC50 inhibition of cell growth", "procedure": "as §1, §2, §3, §4"}, "[18]": {"system": "NCIH460 (lung)", "details": "Homo sapiens, NCI-H460, 72 h, read-out: IC50 inhibition of cell growth", "procedure": "as §1, §2, §3, §4"}, "[19]": {"system": "BT20 (breast)", "details": "Homo sapiens, BT-20, 72 h, read-out: IC50 inhibition of cell growth", "procedure": "as §1, §2, §3, §4"}, "[20]": {"system": "J82 (bladder)", "details": "72 h, read-out: IC50 inhibition of cell growth", "procedure": "as §1, §2, §3, §4"}, "[21]": {"system": "JEG3 (placenta)", "details": "Homo sapiens, JEG-3, 72 h, read-out: IC50 inhibition of cell growth", "procedure": "as §1, §2, §3, §4"}, "[22]": {"system": "SKLMS1 (uterus)", "details": "Homo sapiens, SK-LMS-1, 72 h, read-out: IC50 inhibition of cell growth", "procedure": "as §1, §2, §3, §4"}, "[23]": {"system": "SKNSH (brain)", "details": "Homo sapiens, SK-N-SH, 72 h, read-out: IC50 inhibition of cell growth", "procedure": "as §1, §2, §3, §4"}, "[24]": {"system": "RD (muscle)", "details": "72 h, read-out: IC50 inhibition of cell growth", "procedure": "as §1, §2, §3, §4"}, "[25]": {"system": "OVCAR4 (ovary)", "details": "Homo sapiens, OVCAR-4, 72 h, read-out: IC50 inhibition of cell growth", "procedure": "as §1, §2, §3, §4"}, "[26]": {"system": "A204 (muscle)", "details": "Homo sapiens, 72 h, read-out: IC50 inhibition of cell growth", "procedure": "as §1, §2, §3, §4"}}, "note": "pIC50: −log10 of the molar value. Where two headings read alike, the source gives them in different places.", "data": [{"smiles": "COc1cccc(C(=O)Nc2nc3cc4c(cc3[nH]2)OC(F)(F)O4)c1", "note": "[Compound 56, N-(2,2-difluoro-5H-[1,3]dioxolo[4′,5′:4,5]benzo[1,2-d]imidazol-6-yl)-3-methoxybenzamide]", "values": [{"measurement": "pIC50", "setting": "[1]", "value": "≥ 6.00"}, {"measurement": "pIC50", "setting": "[2]", "value": "≥ 6.00"}, {"measurement": "pIC50", "setting": "[3]", "value": "≥ 6.00"}, {"measurement": "pIC50", "setting": "[4]", "value": "≥ 6.00"}, {"measurement": "pIC50", "setting": "[5]", "value": "≥ 6.00"}, {"measurement": "pIC50", "setting": "[6]", "value": "≥ 6.00"}, {"measurement": "pIC50", "setting": "[7]", "value": "≥ 6.00"}, {"measurement": "pIC50", "setting": "[8]", "value": "≥ 6.00"}, {"measurement": "pIC50", "setting": "[9]", "value": "≥ 6.00"}, {"measurement": "pIC50", "setting": "[10]", "value": "≥ 6.00"}, {"measurement": "pIC50", "setting": "[11]; SKMEL5 (skin)", "value": "≥ 6.00"}, {"measurement": "pIC50", "setting": "[11]; SKMELS (skin)", "value": "≥ 7.00"}, {"measurement": "pIC50", "setting": "[12]", "value": "≥ 6.00"}, {"measurement": "pIC50", "setting": "[13]", "value": "≥ 6.00"}, {"measurement": "pIC50", "setting": "[14]", "value": "≥ 6.00"}, {"measurement": "pIC50", "setting": "[15]", "value": "≥ 6.00"}, {"measurement": "pIC50", "setting": "[16]", "value": "≥ 6.00"}, {"measurement": "pIC50", "setting": "[17]", "value": "≥ 6.00"}, {"measurement": "pIC50", "setting": "[18]", "value": "≥ 6.00"}, {"measurement": "pIC50", "setting": "[19]", "value": "≥ 6.00"}, {"measurement": "pIC50", "setting": "[20]", "value": "≥ 6.00"}, {"measurement": "pIC50", "setting": "[21]", "value": "≥ 6.00"}, {"measurement": "pIC50", "setting": "[22]", "value": "≥ 6.00"}, {"measurement": "pIC50", "setting": "[23]", "value": "≥ 6.00"}, {"measurement": "pIC50", "setting": "[24]", "value": "≥ 6.00"}, {"measurement": "pIC50", "setting": "[25]", "value": "≥ 6.00"}, {"measurement": "pIC50", "setting": "[26]", "value": "≥ 6.00"}]}]}
